Publication PMC9080097, “Identification of absorbed constituents and evaluation of the pharmacokinetics of main compounds after oral administration of yindanxinnaotong by UPLC-Q-TOF-MS and UPLC-QqQ-MS” (RSC Advances, 2018)

Assays:
[1] = Pharmacokinetics study in rats after oral administration of YDXNT (UPLC-QqQ-MS of plasma)
Protocol: (§1) Six milliliters of 75% methanol was added to two milliliters of prepared plasma and then vortexed for 60 s. The mixture was centrifuged at 4000 rpm for 10 min at 4 °C. The supernatant was transferred to another EP tube and dried using a pressure blowing concentrator. The residue was redissolved with 200 μL of 75% methanol, vortexed for 60 s, and then centrifuged at 13 000 rpm for 10 min. To an aliquot of 200 μL plasma, 120 μL of 0.2 mol L^−1 acetic acid–sodium acetate buffer solution (pH = 4.6), 100 μL of the IS baicalein and 80 μL of 980 U mL^−1 β-glucuronidase and sulfatase was added and then vortexed for 1 min. The mixture was hydrolyzed in a water bath at 37 °C for 30 min, and 600 μL acetone was added to stop the hydrolysis. The sample was cooled, followed by vortexing for 2 min and then centrifugation at 13 000 rpm for 10 min. The supernatant fluid was evaporated to dryness under a flow of nitrogen gas.
(§2) Chromatographic analysis was performed using an Agilent 1290 Series UPLC from Agilent Technologies (Palo Alto, CA, USA), equipped with a quaternary pump an online degasser, auto-sampler and column oven. Chromatographic separation was performed on the Agilent ZORBAX SB-Aq C18 column (100 mm × 2.1 mm, 1.8 μm, Agilent, USA). The analytical column temperature was maintained at 30 °C and eluted with a mobile phase comprising 0.1% formic acid in water (A) and acetonitrile (B) using the following gradient program: 25–90% B from 0 to 1 min, 90% B from 1 to 3.5 min, and 90–25% B from 3.5 to 5 min at a flow rate of 0.3 mL min^−1. The equilibration time was 5 min, and the injection volume of sample and reference constituents was 5 μL.
(§3) Mass spectrometry was performed on the Agilent 6490 triple-quadrupole mass spectrometer (Palo Alto, CA, USA) equipped with an atmospheric pressure chemical ionization (APCI) interface. The mass spectrometer was set in negative ionization mode, with the capillary voltage set at 3500 V. The other parameters in the source were set as follows: desolvation gas flow, 15 L min^−1; source temperature, 290 °C; N2 sheath gas temperature, 350 °C; nebulizer gas (N2) pressure, 50 psi; flow, 12 L min^−1. The mass spectrometer scanned in multiple reaction monitoring (MRM) mode.
(§4) Six male rats were used in the pharmacokinetics study. All the rats were orally administered 2.4 g kg^−1 YXCNT suspended in an aqueous solution of 0.5% carboxymethyl cellulose sodium (QCT: 4.118 mg; KMF: 5.067 mg; ISR: 0.965 mg; GA: 1.416 mg; GB: 0.680 mg; GC: 0.796 mg; BB: 0.326 mg; TSIIA: 0.624 mg; SAB: 3.84 mg). After dosing for 0 min, 5 min, 15 min, 20 min, 30 min, 45 min, 1 h, 1.5 h, 2 h, 3 h, 4 h, 6 h, 8 h, 12 h, and 24 h, blood samples (500 μL) were drawn from the retro-orbital plexus of each mouse and collected in heparinized tubes according to the specific schedule. All the collected blood samples were immediately centrifuged at 13 000 rpm for 10 min. The plasma layer was transferred to clean tubes and stored at −20 °C until analysis. The plasma concentrations of QCT, ISR, KMF, GA, GB, GC, BB, TSIIA, and SAB were expressed as the mean ± standard deviation (SD), and the mean concentration–time curve was plotted. Non-compartmental pharmacokinetic parameters were computed using DAS 2.1.1 software.

[2] = Stability of the analytes in rat plasma QC samples (short-term, autosampler, freeze-thaw, long-term); settings: n = 6
in vivo = settings: male, Sprague-Dawley, rat, po
Protocol: as §1, §2, §3, §4

[3] = male, Sprague-Dawley, rat, plasma, po, 4.8 g kg^−1 d^−1
[4] = 1 ng mL^−1, -20°C for four weeks
[5] = 1 ng mL^−1, room temperature for 6 h before sample preparation
[6] = 1 ng mL^−1, room temperature for 12 h in the autosampler after sample preparation
[7] = 1 ng mL^−1, three freeze-thaw cycles -20°C to ambient temperature
[8] = 10 ng mL^−1, -20°C for four weeks
[9] = 10 ng mL^−1, room temperature for 6 h before sample preparation
[10] = 10 ng mL^−1, room temperature for 12 h in the autosampler after sample preparation
[11] = 10 ng mL^−1, three freeze-thaw cycles -20°C to ambient temperature
[12] = 100 ng mL^−1, -20°C for four weeks
[13] = 100 ng mL^−1, room temperature for 6 h before sample preparation
[14] = 100 ng mL^−1, room temperature for 12 h in the autosampler after sample preparation
[15] = 100 ng mL^−1, three freeze-thaw cycles -20°C to ambient temperature
[16] = rat plasma, oral YDXNT 4.8 g kg^−1 d^−1 (2.4 g kg^−1 in source), n = 6, mean ± SD
[17] = rat plasma, oral YDXNT 4.8 g kg^−1 d^−1 (2.4 g kg^−1 in source), n = 6, non-compartmental

Compound	AUC(0-inf) [1, 3] [ng·h/mL]	AUC(0-t) [1, 3] [ng·h/mL]	Cmax [1, 3] [ng/mL]	MRT [1, 3] [h]	Tmax [1, 3] [min]	half-life [1, 3] [min]	Long-term stability Accuracy [2, 4] [%]	Short-term stability Accuracy [2, 5] [%]	Autosampler stability Accuracy [2, 6] [%]	Freeze–thaw strability (three cycles) Accuracy [2, 7] [%]	Long-term stability Accuracy [2, 8] [%]	Short-term stability Accuracy [2, 9] [%]	Autosampler stability Accuracy [2, 10] [%]	Freeze–thaw strability (three cycles) Accuracy [2, 11] [%]	Long-term stability Accuracy [2, 12] [%]	Short-term stability Accuracy [2, 13] [%]	Autosampler stability Accuracy [2, 14] [%]	Freeze–thaw strability (three cycles) Accuracy [2, 15] [%]	other results
O=c1c(O)c(-c2ccc(O)c(O)c2)oc2cc(O)cc(O)c12 [QCT, quercetin]	412 ± 82.7	410 ± 73.2	45 ± 11.3	8.44 ± 1.24	19.8 ± 6.6	161 ± 39	97.57 ± 3.42	100.23 ± 1.69	103.73 ± 5.52	98.27 ± 6.33	96.41 ± 5.79	97.45 ± 4.23	99.34 ± 6.73	100.31 ± 4.27	93.17 ± 7.35	95.97 ± 2.36	94.22 ± 5.14	98.35 ± 7.84	
salvianolic acid B [SAB]																			C max [1, 16]: 32.00 ± 15.43 ng/mL; T max [1, 16]: 45 ± 10.8 min; AUC0–INF [1, 17]: 135.72 ± 64.24; MRT [1, 17]: 9.46 ± 2.37 h; T 1/2 [1, 17]: 12.17 ± 3.33 h; AUC0–t ([1]; rat plasma, oral YDXNT 4.8 g kg^−1 d^−1 (2.4 g kg^−1 in source), n = 6, sampling to 24 h, non-compartmental): 118.17 ± 58.46; Long-term stability Accuracy ([2]; 5 ng mL^−1, -20°C for four weeks): 102.76 ± 5.39%; Short-term stability Accuracy ([2]; 5 ng mL^−1, room temperature for 6 h before sample preparation): 97.28 ± 2.19%; Autosampler stability Accuracy ([2]; 5 ng mL^−1, room temperature for 12 h in the autosampler after sample preparation): 96.38 ± 8.63%; Freeze–thaw strability (three cycles) Accuracy ([2]; 5 ng mL^−1, three freeze-thaw cycles -20°C to ambient temperature): 99.24 ± 6.68%; Long-term stability Accuracy ([2]; 50 ng mL^−1, -20°C for four weeks): 95.72 ± 6.59%; Short-term stability Accuracy ([2]; 50 ng mL^−1, room temperature for 6 h before sample preparation): 96.44 ± 6.33%; Autosampler stability Accuracy ([2]; 50 ng mL^−1, room temperature for 12 h in the autosampler after sample preparation): 96.41 ± 5.79%; Freeze–thaw strability (three cycles) Accuracy ([2]; 50 ng mL^−1, three freeze-thaw cycles -20°C to ambient temperature): 98.88 ± 3.59%; Long-term stability Accuracy ([2]; 500 ng mL^−1, -20°C for four weeks): 97.38 ± 4.39%; Short-term stability Accuracy ([2]; 500 ng mL^−1, room temperature for 6 h before sample preparation): 95.76 ± 8.18%; Autosampler stability Accuracy ([2]; 500 ng mL^−1, room temperature for 12 h in the autosampler after sample preparation): 93.17 ± 7.35%; Freeze–thaw strability (three cycles) Accuracy ([2]; 500 ng mL^−1, three freeze-thaw cycles -20°C to ambient temperature): 95.47 ± 4.92%
CC(C)(C)[C@]1(O)CC2OC(=O)CC23C(=O)OC2OC(=O)[C@H](O)C231 (stereo partly drawn) [BB, bilobalide]	384 ± 51.5	366 ± 48.4	48.7 ± 12.3	9.62 ± 3.18	45 ± 30	333 ± 160	99.15 ± 5.73	98.10 ± 7.83	103.47 ± 6.75	99.85 ± 6.27	96.38 ± 8.63	99.78 ± 5.25	95.29 ± 2.77	98.88 ± 3.59	95.54 ± 7.76	94.05 ± 2.61	97.44 ± 3.13	95.47 ± 4.92	
C[C@@H]1C(=O)O[C@H]2C[C@@]34[C@H]5C[C@@H](C(C)(C)C)[C@]36[C@@H](OC(=O)[C@@H]6O)O[C@@]4(C(=O)O5)[C@]21O [GA, ginkgolide A]							98.92 ± 5.81	100.59 ± 6.08	97.28 ± 2.19	102.76 ± 5.39	95.48 ± 10.28	102.54 ± 7.33	98.33 ± 3.46	98.42 ± 2.84	92.19 ± 8.81	98.31 ± 5.29	96.83 ± 8.30	95.44 ± 7.51	AUC(0-inf) (in vivo): 545 ± 78.9 ng·h/mL; AUC(0-t) (in vivo): 491 ± 72.6 ng·h/mL; Cmax (in vivo): 76.3 ± 18.2 ng/mL; MRT (in vivo): 9.42 ± 1.77 h; Tmax (in vivo): 45 ± 17.4 min; half-life (in vivo): 451 ± 125 min
COc1cc(-c2oc3cc(O)cc(O)c3c(=O)c2O)ccc1O [ISR, isorhamnetin]							98.35 ± 6.27	99.24 ± 6.68	98.06 ± 8.29	103.15 ± 5.43	96.44 ± 6.33	96.28 ± 5.89	97.72 ± 3.83	94.52 ± 3.68	95.76 ± 8.18	102.18 ± 4.95	98.34 ± 7.61	99.63 ± 3.38	AUC(0-inf) (in vivo): 384 ± 55.1 ng·h/mL; AUC(0-t) (in vivo): 319 ± 49.3 ng·h/mL; Cmax (in vivo): 27.9 ± 8.38 ng/mL; MRT (in vivo): 13.9 ± 3.71 h; Tmax (in vivo): 19.8 ± 8.4 min; half-life (in vivo): 491 ± 145 min
O=c1c(O)c(-c2ccc(O)cc2)oc2cc(O)cc(O)c12 [KMF, kaempferol]	539 ± 82.3	401 ± 84.4	49.9 ± 13.8	17.1 ± 4.42	30 ± 13.8	491 ± 145	98.70 ± 9.35	96.50 ± 6.47	99.17 ± 4.39	101.23 ± 8.76	100.48 ± 7.44	101.22 ± 2.09	102.65 ± 5.28	103.21 ± 4.14	95.21 ± 5.96	97.10 ± 3.69	95.96 ± 3.11	94.24 ± 6.63	
Cc1coc2c1C(=O)C(=O)c1c-2ccc2c1CCCC2(C)C [TSIIA, tanshinone IIA]	183 ± 77.4	167 ± 69.5	38.3 ± 17.4	9.89 ± 1.5	15 ± 13.8	422 ± 131	101.23 ± 8.76	96.50 ± 6.47	102.65 ± 5.28	100.31 ± 4.27	103.21 ± 4.14	101.22 ± 2.09	95.96 ± 3.11	101.22 ± 2.09	94.24 ± 6.63	95.96 ± 3.11	99.15 ± 5.73	95.97 ± 2.36	
